Results taken from US6503899B2, “Azepino[4,5-b]pyrano[3,2-e]indoles” (Pharmacia & Upjohn Company, priority 2000, dated 2003).

Row | melting point | SMILES
1 | > 217 °C (dec.) | Cl.Cn1c2c(c3c4c(ccc31)OCCC4)CCNCC2
2 | > 258 °C (dec.) | CC1(C)CCc2c(ccc3[nH]c4c(c23)CCNCC4)O1.Cl
